# Source: US20130203110A1 (priority 2010, published 2013)
# Biological target: α7 subunit of the nicotinic Acetylcholine Receptor (nAchR) (Homo sapiens, UniProt P36544)
# Type: biochemical
# Chain of α7 subunit of the nicotinic Acetylcholine Receptor (nAchR) (P36544 23-502 limits assumed): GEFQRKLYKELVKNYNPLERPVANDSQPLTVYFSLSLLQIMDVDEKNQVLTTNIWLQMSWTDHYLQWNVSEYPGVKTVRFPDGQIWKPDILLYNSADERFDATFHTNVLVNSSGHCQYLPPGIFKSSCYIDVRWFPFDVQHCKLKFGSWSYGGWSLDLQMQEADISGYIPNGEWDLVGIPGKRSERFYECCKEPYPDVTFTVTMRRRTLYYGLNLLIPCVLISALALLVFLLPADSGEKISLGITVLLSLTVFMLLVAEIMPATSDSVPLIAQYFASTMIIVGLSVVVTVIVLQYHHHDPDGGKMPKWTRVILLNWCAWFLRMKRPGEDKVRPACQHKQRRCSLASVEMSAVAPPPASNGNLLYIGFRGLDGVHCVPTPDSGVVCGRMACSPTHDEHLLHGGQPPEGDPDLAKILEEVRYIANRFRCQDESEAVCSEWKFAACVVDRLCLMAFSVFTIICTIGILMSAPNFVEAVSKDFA
Molecule,signal on activation of the nAchR sensor,carbamoylcholine-induced signal after incubation with inhibitor
"C[N+](C)(C)CCOC(N)=O.[Cl-] [carbamoylcholinechloride, Carbamoylcholine chloride]",results in a signal,–
α-Bungarotoxin [α-BTX],–,could not be generated the same way
